Assay results taken from US20160232293A1, “DRUG SENSITIVITY BIOMARKERS AND METHODS OF IDENTIFYING AND USING DRUG SENSITIVITY BIOMARKERS” (SANFORD-BURNHAM MEDICAL RESEARCH INSTITUTE, priority 2013, published 2016).

How the values were obtained:
[1] = system: human cancer cell lines; assay: e-Drug analysis: CCLE drug activity (activity area) in cell lines with missense mutations in a protein functional region (PFR) or whole protein versus cell lines without; format: cell-based
From the text: The CCLE (Cancer Cell Line Encyclopedia; website broadinstitute.org/ccle; Barretina et al., Nature 483:603-607 (2012)) dataset, which includes the mutation profiles of 1,668 genes in 906 human cancer cell lines and drug activity data for 24 different anticancer compounds, was used in the present study. The analysis was focused on missense mutations, as truncating mutations can sometimes be misleading when performing the analysis in terms of functional regions. For example, when analyzing a protein that contains two different domains, if a truncating mutation happens in the first domain, it is not obvious whether the functional consequences of the mutation are caused by the fact that the first domain is altered or that the second domain is missing. […] From the original 42,603 genomic-point mutations in 1,668 genes, 156,817 protein missense mutations were obtained in 9,311 proteins.
CCLE contains data on the drug activity of 24 different compounds in 479 cell lines from 8-point dose-response curves. […] In our analysis only the activity area was used because, according to the CCLE, it captures simultaneously both variables of drug activity: its efficacy and its potency.
For the present study, protein functional regions were defined as domains or intrinsically disordered regions. […] To identify protein domains, annotated Pfam domains were retrieved from ENSEMBL for each protein isoform. A set of 1,300 potential domains identified by AIDA (ab initio domain assembly; Xu et al., Nucleic Acids Research 12:W308-W313 (2014) (Web Server issue); Internet site ffas.burnham.org/AIDA/), an algorithm based on remote homology, were also included. Foldindex (Prilusky et al., Bioinformatics 21(16):3435-8 (2005)) was used to predict intrinsically disordered regions for each protein. Those regions with a predicted unfolded score below −0.1 were included in the present study.
The different mutations of each cell line were mapped to these protein features, giving a total of 30,798 altered regions in 906 cell lines. These regions are divided into 19,918 Pfam domains and 10,880 intrinsically disordered regions. Note that the features can overlap, as the predictions were performed independently and there is no reason why, for example, an intrinsically unfolded region cannot overlap with (or even be located within) a Pfam domain. Note also that these numbers refer to PFRs in all known protein isoforms according to ENSEMBL v72.
The e-Drug analysis protocol looks for PFRs that, when mutated, correlate with drug activity of the different drugs. […] A Wilcoxon test was then performed comparing the drug activity of each compound in the two groups and kept those with a p-value below 0.01. Finally, for those gene regions associated to a certain drug, the activity of the cell lines mutated in the region of interest was compared to the activity of cell lines mutated in other regions of the gene. […] In this case, since the number of cell lines in both groups is lower and fewer tests were performed, a significance threshold of 0.05 instead of 0.01 was established. True positives were considered those PFR that passed both thresholds and that are not in proteins that show an association (p<0.01) with the same drug at the whole-protein level. Note that the analysis is performed independently for each PFR.
To overcome these limitations and decrease the number of false positives among the associations three different thresholds were required for an association to be considered positive (see

[2] = TCGA survival analysis of patients treated with CCLE drugs, grouped by mutations in resistance-associated PFRs; format: in vivo, human; details: for outcome of treated patients with mutations in PFRs associated with resistance vs mutations in other regions of the same proteins or no mutations: TCGA patients treated with Topoisomerase inhibitors Irinotecan and Topotecan (n=188), pooled, p<0.01; for prediction of patient outcome by mutation status of the whole proteins that contain the associated PFRs: TCGA patients treated with Topoisomerase inhibitors, whole-protein level
From the text: Both clinical and mutation data for the 3,205 tumors described in the pan-cancer analysis of the TCGA were downloaded. Data from patients that had not been treated with any of the drugs included in the CCLE was then filtered out. Since most drugs included in the CCLE are still in under clinical research, there were only enough patients to analyze 2 different drugs: paclitaxel (n=778) and irinotecan (n=58). Each of these subsets of patients have then been classified in 3 groups: those that have a mutation in a PFR that, according to the analysis, increases resistance to the drug used to treat them; those with mutations in other regions of the same genes; and those with no mutations in these genes.
As a result very few patients in the TCGA dataset carry mutations in the former type of regions and were treated with the matching drug. The survival analysis was performed using the “Survival” package for R.

SMILES: CS(=O)(=O)CCNCc1ccc(-c2ccc3ncnc(Nc4ccc(OCc5cccc(F)c5)c(Cl)c4)c3c2)o1 [Lapatinib]
- drug activity associated with mutations in the connector domain (Pf05188) of MSH6 ([1]; PFR level, missense mutations, MSH6 Pf05188): higher

SMILES: C#Cc1cccc(Nc2ncnc3cc(OCCOC)c(OCCOC)cc23)c1 [Erlotinib]
- association of MSH6 mutations with the drug at protein level ([1]; protein level analysis, MSH6 whole protein): potential association

SMILES: CC(=O)O[C@H]1C(=O)[C@@]2(C)[C@H]([C@H](OC(=O)c3ccccc3)[C@]3(O)C[C@H](OC(=O)[C@H](O)[C@@H](NC(=O)c4ccccc4)c4ccccc4)C(C)=C1C3(C)C)[C@]1(OC(C)=O)CO[C@@H]1C[C@@H]2O [Paclitaxel]
- outcome of treated patients with mutations in PFRs associated with increased resistance ([2]; TCGA patients treated with paclitaxel (n=778), p>0.9): no differences

SMILES: CC[C@@]1(O)C(=O)OCc2c1cc1n(c2=O)Cc2cc3c(CN(C)C)c(O)ccc3nc2-1 [Topotecan]
- outcome of treated patients with mutations in PFRs associated with resistance vs mutations in other regions of the same proteins or no mutations [2]: worse outcomes
- prediction of patient outcome by mutation status of the whole proteins that contain the associated PFRs ([2]; p>0.9): cannot predict the outcome

SMILES: Cn1c(Nc2ccc(C(F)(F)F)cc2)nc2cc(Oc3ccnc(-c4ncc(C(F)(F)F)[nH]4)c3)ccc21 [RAF265]
- drug activity associated with mutations in the ATPase domain (Pf00488) of MSH6 ([1]; PFR level, missense mutations, MSH6 Pf00488): higher

SMILES: CCc1c2c(nc3ccc(OC(=O)N4CCC(N5CCCCC5)CC4)cc13)-c1cc3c(c(=O)n1C2)COC(=O)[C@]3(O)CC [Irinotecan]
- outcome of treated patients with mutations in PFRs associated with resistance vs mutations in other regions of the same proteins or no mutations [2]: worse outcomes
- prediction of patient outcome by mutation status of the whole proteins that contain the associated PFRs ([2]; p>0.9): cannot predict the outcome

SMILES: C[C@@H](Oc1cc(-c2cnn(C3CCNCC3)c2)cnc1N)c1c(Cl)ccc(F)c1Cl [PF2341066]
- sensitivity of cell lines with mutations in the ERBB3 receptor domain ([1]; PFR level analysis, N-terminal EGF receptor domain of ERBB3): resistant
- behavior of cell lines with mutations in any other PFR of ERBB3 ([1]; PFR level analysis, other PFRs of ERBB3 such as the kinase domain): do not show any specific behavior
- activity of the drug in cell lines with mutations in ERBB3 ([1]; protein level analysis, ERBB3 whole protein): do not show any bias
